The target of one experiment is MDM2 (Homo sapiens, UniProt Q00987). The experiment in a line: Competitive fluorescence polarization assay for MDM2. Format: binding. Particulars: competitive FP assay, MDM2. (In general: Polarisation of emitted light reports the rotation of a fluorescent probe.)
In a further experiment the target is T1, MDMX (Homo sapiens, UniProt O15151).
T1 sequence (O15151 1-125): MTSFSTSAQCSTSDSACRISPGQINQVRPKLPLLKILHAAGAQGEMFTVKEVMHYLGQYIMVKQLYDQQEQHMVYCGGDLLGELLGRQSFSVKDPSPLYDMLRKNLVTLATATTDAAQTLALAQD
Kind of experiment: Competitive fluorescence polarization assay for MDMX. The conditions noted are these: competitive FP assay. Format: binding.

Read-outs that look alike come from different tables or passages of the source.

MDM2, sequence (Q00987 1-125): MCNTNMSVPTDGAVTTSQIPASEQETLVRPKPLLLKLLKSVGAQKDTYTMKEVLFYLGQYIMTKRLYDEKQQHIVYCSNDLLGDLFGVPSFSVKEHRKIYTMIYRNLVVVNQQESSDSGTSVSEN

Usually IC50 stands for the midpoint of a concentration-inhibition curve. Usually Ki stands for a measure of affinity in units of concentration, obtained from inhibition or displacement. On to `CCCC[C@H](NC(=O)[C@H](C)NC(=O)[C@H](C)NC(=O)[C@]1(C)CCCC=CCCCCCC[C@@](C)(NC(=O)[C@H](Cc2ccccc2)NC(=O)[C@@H](NC(=O)[C@H](CC(C)C)NC(C)=O)[C@@H](C)O)C(=O)N[C@@H](C)C(=O)N[C@@H](Cc2ccc(O)cc2)C(=O)N[C@@H](Cc2c[nH]c3ccccc23)C(=O)N[C@@H](C)C(=O)N[C@@H](CCC(N)=O)C(=O)N[C@@H](CC(C)C)C(=O)N1)C(=O)N(C)CC(N)=O` (single isomer, unassigned) [compound 402], for which the IC50 on MDM2 (read-out: IC50 (MDM2)) and on MDMX (read-out: IC50 (MDMX)) was < 10 nM throughout. Also, the Ki on MDM2 (read-out: Ki (MDM2)) and at MDMX (read-out: Ki (MDMX)) was < 10 nM each time.

With `CCCC[C@H](NC(=O)[C@H](C)NC(=O)[C@H](C)NC(=O)[C@]1(C)CCCC=CCCCCCC[C@@](C)(NC(=O)[C@H](Cc2ccccc2)NC(=O)[C@@H](NC(=O)[C@H](CC(C)C)NC(C)=O)[C@@H](C)O)C(=O)N[C@@H](C)C(=O)N[C@@H](Cc2ccc(O)cc2)C(=O)N[C@@H](Cc2c[nH]c3ccccc23)C(=O)N[C@@H](C)C(=O)N[C@@H](CCC(N)=O)C(=O)N[C@@H](CC(C)C)C(=O)N1)C(=O)N[C@@H](C)C(=O)NC(C)(C)C(N)=O` (single isomer, unassigned) [compound 404], the IC50 at MDM2 (read-out: IC50 (MDM2)) and on MDMX (read-out: IC50 (MDMX)) was 10 to 100 nM throughout. Further, the inhibitory constant (Ki) at MDM2 (read-out: Ki (MDM2)) and on MDMX (read-out: Ki (MDMX)) was < 10 nM in each case.

Take `CCCC[C@H](NC(=O)[C@H](C)NC(=O)[C@H](C)NC(=O)[C@]1(C)CCCC=CCCCCCC[C@@](C)(NC(=O)[C@H](Cc2ccccc2)NC(=O)[C@@H](NC(=O)[C@H](CC(C)C)NC(C)=O)[C@@H](C)O)C(=O)N[C@@H](C)C(=O)N[C@@H](Cc2ccc(O)cc2)C(=O)N[C@@H](Cc2c[nH]c3ccccc23)C(=O)N[C@@H](C)C(=O)N[C@@H](CCC(N)=O)C(=O)N[C@@H](CC(C)C)C(=O)N1)C(=O)N[C@@H](C)C(=O)N[C@H](C)C(N)=O` (single isomer, unassigned) [compound 408]: the IC50 on MDM2 (read-out: IC50 (MDM2)) and on MDMX (read-out: IC50 (MDMX)) was 10 to 100 nM in each case. In addition, the Ki at MDM2 (read-out: Ki (MDM2)) is < 10 nM; at MDMX (read-out: Ki (MDMX)) it was 10 to 100 nM.

On to `CCCC[C@H](NC(=O)[C@H](C)NC(=O)[C@H](C)NC(=O)[C@]1(C)CCCC=CCCCCCC[C@@](C)(NC(=O)[C@H](Cc2ccccc2)NC(=O)[C@@H](NC(=O)[C@H](CC(C)C)NC(C)=O)[C@@H](C)O)C(=O)N[C@@H](C)C(=O)N[C@@H](Cc2ccc(O)cc2)C(=O)N[C@@H](Cc2c[nH]c3ccccc23)C(=O)N[C@@H](C)C(=O)N[C@@H](CCC(N)=O)C(=O)N[C@@H](CC(C)C)C(=O)N1)C(=O)N[C@@H](C)C(=O)N(C)CC(N)=O` (single isomer, unassigned) [compound 410], for which the IC50 at MDM2 (read-out: IC50 (MDM2)) and on MDMX (read-out: IC50 (MDMX)) was < 10 nM in each case. Further, the Ki at MDM2 (read-out: Ki (MDM2)) and on MDMX (read-out: Ki (MDMX)) was < 10 nM each time.

Consider `CCCC[C@H](NC(=O)[C@H](C)NC(=O)[C@H](C)NC(=O)[C@]1(C)CCCC=CCCCCCC[C@@](C)(NC(=O)[C@H](Cc2ccccc2)NC(=O)[C@@H](NC(=O)[C@H](CC(C)C)NC(C)=O)[C@@H](C)O)C(=O)N[C@@H](C)C(=O)N[C@@H](Cc2ccc(O)cc2)C(=O)N[C@@H](Cc2c[nH]c3ccccc23)C(=O)N[C@@H](C)C(=O)N[C@@H](CCC(N)=O)C(=O)N[C@@H](CC(C)C)C(=O)N1)C(=O)N[C@@H](C)C(=O)O` (single isomer, unassigned) [compound 421], for which the IC50 on MDM2 (read-out: IC50 (MDM2)) and on MDMX (read-out: IC50 (MDMX)) was < 10 nM each time. Further, the Ki on MDM2 (read-out: Ki (MDM2)) and on MDMX (read-out: Ki (MDMX)) was < 10 nM each time.

For `CCCC[C@H](NC(=O)[C@H](C)NC(=O)[C@H](C)NC(=O)[C@]1(C)CCCC=CCCCCCC[C@@](C)(NC(=O)[C@H](Cc2ccccc2)NC(=O)[C@@H](NC(=O)[C@H](CC(C)C)NC(C)=O)[C@@H](C)O)C(=O)N[C@@H](C)C(=O)N[C@@H](Cc2ccc(O)cc2)C(=O)N[C@@H](Cc2c[nH]c3ccccc23)C(=O)N[C@@H](C)C(=O)N[C@@H](CCC(N)=O)C(=O)N[C@@H](CC(C)C)C(=O)N1)C(=O)N[C@@H](C)C(=O)NCCC` (single isomer, unassigned) [compound 423], the IC50 at MDM2 (read-out: IC50 (MDM2)) and on MDMX (read-out: IC50 (MDMX)) was 10 to 100 nM in each case. Moreover, the Ki is < 10 nM at MDM2 (read-out: Ki (MDM2)) and 10 to 100 nM on MDMX (read-out: Ki (MDMX)).

For the molecule `CCCC[C@H](NC(=O)[C@H](C)NC(=O)[C@H](C)NC(=O)[C@]1(C)CCCC=CCCCCCC[C@@](C)(NC(=O)[C@H](Cc2ccccc2)NC(=O)[C@@H](NC(=O)[C@H](CC(C)C)NC(C)=O)[C@@H](C)O)C(=O)N[C@@H](C)C(=O)N[C@@H](Cc2ccc(O)cc2)C(=O)N[C@@H](Cc2c[nH]c3ccccc23)C(=O)N[C@@H](C)C(=O)N[C@@H](CCC(N)=O)C(=O)N[C@@H](CC(C)C)C(=O)N1)C(=O)N[C@@H](C)C(=O)NCCC(C)(C)C` (single isomer, unassigned) [compound 425], the IC50 on MDM2 (read-out: IC50 (MDM2)) and at MDMX (read-out: IC50 (MDMX)) was 10 to 100 nM each time. The Ki at MDM2 (read-out: Ki (MDM2)) and at MDMX (read-out: Ki (MDMX)) was 10 to 100 nM each time.

As for `CCCCCCNC(=O)[C@H](C)NC(=O)[C@H](CCCC)NC(=O)[C@H](C)NC(=O)[C@H](C)NC(=O)[C@]1(C)CCCC=CCCCCCC[C@@](C)(NC(=O)[C@H](Cc2ccccc2)NC(=O)[C@@H](NC(=O)[C@H](CC(C)C)NC(C)=O)[C@@H](C)O)C(=O)N[C@@H](C)C(=O)N[C@@H](Cc2ccc(O)cc2)C(=O)N[C@@H](Cc2c[nH]c3ccccc23)C(=O)N[C@@H](C)C(=O)N[C@@H](CCC(N)=O)C(=O)N[C@@H](CC(C)C)C(=O)N1` (single isomer, unassigned) [compound 427], the IC50 at MDM2 (read-out: IC50 (MDM2)) and at MDMX (read-out: IC50 (MDMX)) was 100 to 1000 nM in each case. Moreover, the inhibition constant (Ki) at MDM2 (read-out: Ki (MDM2)) and on MDMX (read-out: Ki (MDMX)) was 10 to 100 nM each time.

On to `CC(C)C[C@H](NC(=O)CN(C)C)C(=O)N[C@H](C(=O)N[C@@H](Cc1ccccc1)C(=O)N[C@]1(C)CCCCCCC=CCCC[C@@](C)(C(=O)N[C@@H](C)C(=O)N[C@@H](C)C(=O)N[C@@H](C)C(=O)N[C@@H](C)C(=O)N[C@@H](C)C(=O)N[C@H](C)C(N)=O)NC(=O)[C@H](CC(C)C)NC(=O)[C@H](CCC(N)=O)NC(=O)[C@H](C)NC(=O)[C@H](Cc2c[nH]c3ccccc23)NC(=O)[C@H](Cc2ccc(O)cc2)NC(=O)[C@H](CCC(=O)O)NC1=O)[C@@H](C)O` (single isomer, unassigned) [compound 439], for which the IC50 at MDM2 (IC50 (MDM2)) is < 10 nM; at MDMX (IC50 (MDMX)), 10 to 100 nM. The Ki on MDM2 (Ki (MDM2)) and at MDMX (Ki (MDMX)) was < 10 nM throughout.

On to `CC[C@H](C)[C@H](NC(=O)[C@H](C)NC(=O)[C@H](C)NC(=O)[C@]1(C)CCCC=CCCCCCC[C@@](C)(NC(=O)[C@H](Cc2ccccc2)NC(=O)[C@@H](NC(=O)[C@H](CC(C)C)NC(=O)CN(C)C)[C@@H](C)O)C(=O)N[C@@H](CCC(=O)O)C(=O)N[C@@H](Cc2ccc(C(=O)O)cc2)C(=O)N[C@@H](Cc2c[nH]c3ccccc23)C(=O)N[C@@H](C)C(=O)N[C@@H](CCC(N)=O)C(=O)N[C@@H](CC2CCC2)C(=O)N1)C(=O)N[C@H](C)C(N)=O` (single isomer, unassigned) [compound 441], for which the IC50 at MDM2 (read-out: IC50 (MDM2)) and at MDMX (read-out: IC50 (MDMX)) was < 10 nM each time. Also, the Ki at MDM2 (read-out: Ki (MDM2)) and on MDMX (read-out: Ki (MDMX)) was < 10 nM throughout.

For `CCCC[C@H](NC(=O)[C@H](C)NC(=O)[C@H](C)NC(=O)[C@]1(C)CCCC=CCCCCCC[C@@](C)(NC(=O)[C@H](Cc2ccccc2)NC(=O)[C@@H](NC(=O)[C@H](CC(C)C)NC(=O)CN(C)C)[C@@H](C)O)C(=O)N[C@@H](C)C(=O)N[C@@H](Cc2ccc(O)cc2)C(=O)N[C@@H](Cc2c[nH]c3ccccc23)C(=O)N[C@@H](C)C(=O)N[C@@H](CCC(N)=O)C(=O)N[C@@H](CC(C)C)C(=O)N1)C(=O)N[C@@H](C)C(N)=O` (single isomer, unassigned) [compound 443], the IC50 on MDM2 (read-out: IC50 (MDM2)) and on MDMX (read-out: IC50 (MDMX)) was 10 to 100 nM in each case. Moreover, the Ki is < 10 nM at MDM2 (read-out: Ki (MDM2)) and 10 to 100 nM on MDMX (read-out: Ki (MDMX)).

As to `CC(=O)N[C@@H](CC(C)C)C(=O)N[C@H](C(=O)N[C@@H](Cc1ccccc1)C(=O)N[C@]1(C)CCCCCCC=CCCC[C@@](C)(C(=O)N[C@@H](C)C(=O)N[C@@H](C)C(=O)N[C@@H](C)C(=O)N[C@@H](C)C(=O)N[C@@H](C)C(=O)N[C@H](C)C(=O)O)NC(=O)[C@H](CC(C)C)NC(=O)[C@H](CCC(N)=O)NC(=O)[C@H](C)NC(=O)[C@H](Cc2c[nH]c3ccccc23)NC(=O)[C@H](Cc2ccc(O)cc2)NC(=O)[C@H](CCC(=O)O)NC1=O)[C@@H](C)O` (single isomer, unassigned) [compound 551], the Ki was < 10 nM at MDM2 (Ki (MDM2)) and 10 to 100 nM on MDMX (Ki (MDMX)).

Take `CC(=O)N[C@@H](CC(C)C)C(=O)N[C@H](C(=O)N[C@@H](Cc1ccccc1)C(=O)N[C@]1(C)CCCCCCC=CCCC[C@@](C)(C(=O)N[C@@H](C)C(=O)N[C@@H](C)C(=O)N[C@@H](C)C(=O)N[C@@H](C)C(=O)N[C@@H](C)C(=O)N[C@H](C)C(N)=O)NC(=O)[C@H](CC(C)C)NC(=O)[C@H](C)NC(=O)[C@H](C)NC(=O)[C@H](Cc2c[nH]c3ccccc23)NC(=O)[C@H](Cc2ccc(O)cc2)NC(=O)[C@H](C)NC1=O)[C@@H](C)O` (single isomer, unassigned) [compound 708]: the Ki at MDM2 (read-out: Ki (MDM2)) and at MDMX (read-out: Ki (MDMX)) was 10 to 100 nM throughout.

With `CC(=O)N[C@@H](CC(C)C)C(=O)N[C@H](C(=O)N[C@@H](Cc1ccccc1)C(=O)N[C@]1(C)CCCCCCC=CCCC[C@@](C)(C(=O)N[C@@H](CO)C(N)=O)NC(=O)[C@H](CC(C)C)NC(=O)[C@H](CCC(N)=O)NC(=O)[C@H](C)NC(=O)[C@H](Cc2c[nH]c3ccccc23)NC(=O)[C@H](C)NC(=O)[C@H](Cc2c[nH]cn2)NC1=O)[C@@H](C)O` (single isomer, unassigned) [compound 710], the Ki on MDM2 (read-out: Ki (MDM2)) and on MDMX (read-out: Ki (MDMX)) was 10 to 100 nM each time.

The record behind these values is patent publication US8927500B2, “Peptidomimetic macrocycles” (Aileron Therapeutics, Inc., priority 2012, dated 2015).
